Reference: PMC5862601 (Oncotarget, 2018)
Where two headings read alike, the source gives them in different places.

What was measured:
human A2BAR [1] = target: T1, human A2BAR (Homo sapiens, UniProt P29275); set-up: expressed in transfected cells; details: cAMP accumulation; CHO-A2B; ref [13]; cited from earlier work
T1 sequence (P29275 1-332): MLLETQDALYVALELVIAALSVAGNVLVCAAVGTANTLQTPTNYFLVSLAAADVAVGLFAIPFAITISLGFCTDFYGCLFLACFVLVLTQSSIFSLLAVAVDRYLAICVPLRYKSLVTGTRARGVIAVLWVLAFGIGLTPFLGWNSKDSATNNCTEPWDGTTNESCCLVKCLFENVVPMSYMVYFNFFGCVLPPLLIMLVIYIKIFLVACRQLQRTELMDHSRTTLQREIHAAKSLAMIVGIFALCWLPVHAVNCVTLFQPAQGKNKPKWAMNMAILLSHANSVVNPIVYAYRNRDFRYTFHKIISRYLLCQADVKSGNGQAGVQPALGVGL

[2] = target: T2, A2A and A2BARs natively expressed in Jurkat-T cells (Homo sapiens, UniProt P29274+P29275); set-up: method as in ref [15] (a number printed in a supplementary file, which may have a reference list of its own: not looked up in the article's list); details: cAMP accumulation, up to 10 µM, ref [15]; cited from earlier work
HEK-A2B cells, A2B ≥ A2A = details: cited from earlier work
[3] = target: T3, A2BARs in Jurkat-T cell membranes (Homo sapiens, UniProt P29275); assay type: binding; details: vs [3H]PSB-603 (0.3 nM); Jurkat-T cells, A2B ≥ A2A; read-out: Ki ± SEM
T3 construct: Human Jurkat-T cells natively expressing A2A and A2BARs; endogenous in cells; host or cells: Jurkat-T
Protocol: The preparation of Jurkat-T cell membranes was performed as follows: a Jurkat-T cell suspension was centrifuged in 50 ml falcon tubes at 200 g, 4° C, 5 min. The supernatant was discarded and the cell pellets were quickly frozen at –80° C. The defrosted pellets were then resuspended in ice-cold 25 mM Tris-buffer, 0.32 M sucrose, 1 mM ethylenediaminetetraacetic acid (EDTA), 0.1 mM phenylmethanesulfonylfluoride (PMSF), pH 7.4, and homogenized with an Ultra-Turrax (30 s on ice). The homogenate was centrifuged for 10 min at 1000 g at 4° C. The resulting pellets were discarded and the supernatant was centrifuged for 1 h at 48.000 g at 4° C. Pellets containing the membranes were resuspended in aqua bidest., homogenized with an Ultra-Turrax (30 s on ice) and centrifuged under the same conditions. The supernantant was discarded and the pellets were resuspended in 50 mM Tris-buffer, pH 7.4 and homogenized with a glass Teflon homogenizer on ice. The resuspended and homogenzied pellets were aliquoted and stored at –80° C until use.
After an incubation time of 60 min at rt, the assay mixture was filtered through GF/B glass fiber filters. Washing buffer: 50 mM Tris-HCl buffer, 0.1% bovine serum albumin (BSA), pH 7.4.

human A2AAR [4] = target: T4, human A2AAR (Homo sapiens, UniProt P29274); experiment: cAMP accumulation assay in CHO-A2A cells; assay type: cell-based
T4 construct: expressed in transfected cells
Protocol: (§1) The determination of cAMP accumulation in recombinant CHO and in Jurkat-T cells was performed as previously described.

[5] = target: T5, A2BARs in HeLa cell membranes (Homo sapiens, UniProt P29275); assay type: binding; details: vs [3H]PSB-603 (0.3 nM); HeLa cells, A2B ≥ A2A; read-out: Ki ± SEM
T5 construct: HeLa cells natively expressing human A2A and A2BARs; endogenous in cells; host or cells: HeLa
Protocol: (§4) The preparations of CHO and HeLa membranes recombinantly (or natively) expressing human A2A and/or A2BAR subtypes were performed as previously described [5]. Membranes from HEK-A2B or A2A cells, which were used for some of the radioligand competition binding studies, were purchased from Perkin Elmer (Waltham, USA). […] The protein content of all membrane preparations was determined with the Lowry method [58].

[6] = test system: T24 human bladder carcinoma cells; details: T24 human bladder carcinoma, cited from earlier work
human A2BAR [7] = target: T1, human A2BAR; set-up: expressed in transfected cells; details: vs [3H]PSB-603 (0.3 nM); A2BAR expressing HEK or CHO membranes; ref [14]; read-out: Ki ± SEM; cited from earlier work
[8] = target: T6, human A2AAR and A2BAR in HEK293T cells (Homo sapiens, UniProt P29274+P29275); experiment: cAMP assay at HEK-A2A cells transiently transfected with increasing amounts of A2BAR; assay type: cell-based; details: 100 nM agonist, A2BAR cDNA 0.25–1.5 µg
T6 construct: expressed in transfected cells; host or cells: HEK293T
Protocol: HEK293T cells were transiently transfected with the corresponding cDNA (pcDNA3.1+-hA2B, pcDNA3.1+-hA2A) by the polyethylenimine (Sigma) method [62]. The determination of AR-induced cAMP accumulation in HEK293T cells transiently expressing A2A and A2BARs was performed as previously described [62].

[9] = test system: Human prostatic carcinoma cells PC-3; set-up: method as in Wei Q, et al. Purinergic Signal. 2013; 9: 271-280. [23]; details: et al. Purinergic Signal. 2013, 9: 271-280. [23], cited from earlier work
[10] = test system: prostate cancer cell lines (A2B > A2A); details: three prostate cancer cell lines (A2B > A2A); ref [13]; cited from earlier work
[11] = target: T6, human A2AAR and A2BAR in HEK293T cells; experiment: Dynamic mass redistribution (DMR) assay in HEK293T cells transfected with A2A and A2BAR cDNA; assay type: cell-based; details: 100 nM agonist
Protocol: In brief, 24 h before the assay, cells were seeded at a density of 7,500 cells per well in 384-well sensor microplates with 40 µl of growth medium and cultured for 24 h (37° C, 5 % CO2) to obtain 70–80% confluent monolayers. […] Hereafter, the sensor plate was scanned and a baseline optical signature was recorded before adding 10 µl of test compound dissolved in assay buffer containing 0.1% DMSO and DMR responses were monitored for at least 8,000 s using an EnSpire® Multimode Plate Reader (PerkinElmer, Waltham, MA, USA) by a label-free technology. Data were analyzed using EnSpire Workstation Software v 4.10.

[12] = test system: HEK293 (native) cells, A2B ≥ A2A; details: cited from earlier work
human A2BAR [13] = target: T1, human A2BAR; experiment: biochemical
Protocol: as §4

human A2AAR [14] = target: T4, human A2AAR; details: vs [3H]MSX-2 (1 nM), A2AAR expressing HEK or CHO membranes, read-out: Ki ± SEM, cited from earlier work
human A2AAR [15] = target: T4, human A2AAR; assay type: binding
Protocol: The preparations of CHO and HeLa membranes recombinantly (or natively) expressing human A2A and/or A2BAR subtypes were performed as previously described [5]. Membranes from HEK-A2B or A2A cells, which were used for some of the radioligand competition binding studies, were purchased from Perkin Elmer (Waltham, USA). The preparation of Jurkat-T cell membranes was performed as follows: a Jurkat-T cell suspension was centrifuged in 50 ml falcon tubes at 200 g, 4° C, 5 min. The supernatant was discarded and the cell pellets were quickly frozen at –80° C. The defrosted pellets were then resuspended in ice-cold 25 mM Tris-buffer, 0.32 M sucrose, 1 mM ethylenediaminetetraacetic acid (EDTA), 0.1 mM phenylmethanesulfonylfluoride (PMSF), pH 7.4, and homogenized with an Ultra-Turrax (30 s on ice). The homogenate was centrifuged for 10 min at 1000 g at 4° C. The resulting pellets were discarded and the supernatant was centrifuged for 1 h at 48.000 g at 4° C. Pellets containing the membranes were resuspended in aqua bidest., homogenized with an Ultra-Turrax (30 s on ice) and centrifuged under the same conditions. The supernantant was discarded and the pellets were resuspended in 50 mM Tris-buffer, pH 7.4 and homogenized with a glass Teflon homogenizer on ice. […] The protein content of all membrane preparations was determined with the Lowry method [58].

[16] = target: T2, A2A and A2BARs natively expressed in Jurkat-T cells; details: read-out: KB-value ± SEM, cAMP accumulation, antagonist potency versus NECA
Protocol: as §1

human A2BAR [17] = target: T1, human A2BAR; experiment: cell-based
Protocol: as §1

[18] = test system: isolated perfused mouse heart; details: A2B knockout vs wildtype mice, ref [51]; cited from earlier work
[19] = test system: CHO-K1 cell membranes (non-transfected); experiment: Radioligand affinity (saturation or homologous competition) at CHO cells; assay type: binding, Chinese hamster
Protocol: (§2) Radioligand receptor binding experiments at membrane preparation of native (HeLa) and recombinant cells (CHO- or HEK cells recombinantly expressing A2A and/or A2BARs) using the A2B-selective antagonist radioligand [³H]PSB-603 (spec. activity: 79 Ci/mmol) to detect A2BARs were performed as previously described. Competition binding experiments at various membrane preparations of native (HeLa, Jurkat-T) and recombinant cells (CHO or HEK cells expressing A2A and/or A2BARs) using the A2A-selective antagonist radioligand [^3H]MSX-2 (spec. activity: 85 Ci/mmol) to detect A2AARs were performed in analogy to described procedures. […] Non-specific binding was determined in the presence of unlabeled MSX-2, or CGS-15943, respectively (10 µM), both giving identical results.
(§3) The assay was performed in a final volume of 400 µl containing 4 µl of test compound dissolved in DMSO, 196 µl buffer (50 mM Tris-HCl, 10 mM MgCl2 pH 7.4), 100 µl of radioligand solution in the same buffer (5 nM), and 100 µl of membrane preparation (10 to 200 µg of protein per vial, 2 U/ml ADA 20 min incubation at rt). […] All data were analyzed with GraphPad Prism, Version 4 (GraphPad Inc., La Jolla, CA).

[20] = target: A2A and A2BARs in intact primary human lymphocytes; experiment: Radioligand affinity at intact primary human T-lymphocytes, unstimulated; assay type: binding; details: T-Lymphocytes unstimulated (A2A > A2B), intact cells, homologous competition
human A2AAR [21] = target: T4, human A2AAR; experiment: Radioligand affinity at HEK or CHO-A2A; assay type: binding; details: saturation
Protocol: as §2, §3

[22] = target: A2A and A2BARs in intact primary human lymphocytes; experiment: Radioligand affinity at intact primary human T-lymphocytes, stimulated with phytohemagglutinin; assay type: binding; details: T-Lymphocytes stimulated (A2A > A2B); intact cells; homologous competition; read-out: KD ± SEM
human A2BAR [23] = target: T1, human A2BAR; set-up: expressed in transfected cells; method as in ref [12] (a number printed in a supplementary file, which may have a reference list of its own: not looked up in the article's list); details: HEK or CHO-A2B (A2B); saturation; ref [12]; read-out: KD ± SEM; cited from earlier work
[24] = target: T7, A2A and A2BARs in HeLa cell membranes (Homo sapiens, UniProt P29274+P29275); experiment: Radioligand affinity at HeLa cells (A2B ≥ A2A); assay type: binding; details: homologous competition, read-out: KD ± SEM
T7 construct: HeLa cells natively expressing human A2A and A2BARs; endogenous in cells; host or cells: HeLa
Protocol: as §2, §3

HA-tagged human A2AAR = target: T8, HA-tagged human A2AAR (Homo sapiens, UniProt P29274); experiment: Radioligand affinity at CHO-HA-A2A; assay type: binding; details: homologous competition
T8 construct: HA; expressed in transfected cells

[25] = target: T9, A2A and A2BARs in Jurkat-T cell membranes (Homo sapiens, UniProt P29274+P29275); experiment: Radioligand affinity at Jurkat-T cells (A2B ≥ A2A); assay type: binding; details: homologous competition
T9 construct: Human Jurkat-T cells natively expressing A2A and A2BARs; endogenous in cells; host or cells: Jurkat-T
Protocol: as §2
as §3, with “CA). […]” for “CA).”

[26] = ref Gao Z, et al. Biochem Pharmacol. 2014, 90: 297-306. [17]
[27] = ref Hinz S, et al. J Pharmacol Exp Ther. 2014, 3: 427-436. [15]
[28] = ref Cooper J, et al. Br J Pharmacol. 1997, 122: 546-550. [18]
[29] = ref Phelps PT, et al. Eur J Pharmacol. 2006, 536: 28-37. [20]

T4 sequence (P29274 whole entry): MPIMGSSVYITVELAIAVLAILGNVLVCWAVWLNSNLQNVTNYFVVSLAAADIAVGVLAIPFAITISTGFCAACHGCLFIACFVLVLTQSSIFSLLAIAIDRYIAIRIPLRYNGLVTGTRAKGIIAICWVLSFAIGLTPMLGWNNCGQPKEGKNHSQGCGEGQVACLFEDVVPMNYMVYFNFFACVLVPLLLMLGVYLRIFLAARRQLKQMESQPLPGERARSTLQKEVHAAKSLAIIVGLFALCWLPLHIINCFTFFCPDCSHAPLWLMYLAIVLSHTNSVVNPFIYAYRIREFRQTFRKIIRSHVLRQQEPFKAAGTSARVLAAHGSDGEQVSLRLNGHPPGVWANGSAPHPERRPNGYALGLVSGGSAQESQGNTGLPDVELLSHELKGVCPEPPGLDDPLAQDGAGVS
T6 sequence (P29274 whole entry, one chain of several): as the sequence (P29274 whole entry) above
T9 sequence (P29274 whole entry, one chain of several): as the sequence (P29274 whole entry) above
T8 sequence (P29274 whole entry): as above
T2 sequence (P29274 whole entry, one chain of several): as the sequence (P29274 whole entry) above
T7 sequence (P29274 whole entry, one chain of several): as the sequence (P29274 whole entry) above

In the case of `N#Cc1c(N)nc(SCC(N)=O)c(C#N)c1-c1ccc(OCC2CC2)cc1` [BAY60-6583], the EC50 (human A2BAR [1]) is given as 165 nM, the “EC50 (result in words)” value [2] is given as “low signal” and the EC50 (HEK-A2B cells, A2B ≥ A2A; [26]) is given as 6.14 nM. The EC50 (HEK-A2B cells, A2B ≥ A2A; [27]) was 505 nM, the Ki [3] was 2960 nM and the EC50 (human A2AAR [4]; cAMP accumulation, CHO-A2A) was greater than 10000 nM. The Ki [5] was 212 ± 58 nM, the EC50 [6, 26] was 43 nM and the Ki (human A2BAR [7]) was 212 ± 20 nM. The “change in cAMP accumulation with increasing amounts of transiently transfected A2BAR” value [8] was “significant increase in cAMP accumulation”, the EC50 ([9]; ref Wei Q) was 7.2 nM and the “induction of cAMP accumulation” value [10] was “concentration-dependently induced cAMP accumulation”. The “change in DMR signal with increasing amounts of transiently transfected A2BAR” value [11] was “time-dependent increase in the signal” and the EC50 [12, 26] was 296 nM.
For `CCCn1c(=O)c2[nH]c(C3CCCC3)nc2n(CCC)c1=O` [DPCPX, 8-cyclopentyl-1,3-dipropylxanthine], the “A2B antagonist IC50/KB” value [12, 28] is listed as “DPCPX: 97.7 nM”.
In the case of `CCCn1c(=O)c2[nH]c(-c3ccc(OCC(=O)Nc4ccc(C#N)cc4)cc3)nc2n(CCC)c1=O` [MRS1754], the “A2B antagonist IC50/KB” value [6, 29] is listed as “MRS1754: 665 nM”.
For `C#CCn1c(=O)c2c(nc(C=Cc3cccc(OC)c3)n2C)n(CCCO)c1=O` [MSX-2, 3-(3-hydroxypropyl)-7-methyl-8-(m-methoxystyryl)-1-propargylxanthine], the Ki (human A2BAR [13]) is given as greater than 1000 nM, the Ki (human A2AAR [14]; ref [13]) is given as 2.03 nM and the Kb (human A2AAR [4]; read-out: KB-value ± SEM) is given as 14.5 ± 3.6 nM. For the same compound, the Ki (human A2AAR [15]) was 5 ± 0.6 nM.
For `CCCn1c(=O)[nH]c2nc(-c3ccc(S(=O)(=O)N4CCN(c5ccc(Cl)cc5)CC4)cc3)[nH]c2c1=O` [PSB-603, 8-(4-(4-(4-chlorophenyl)-piperazine-1-sulfonyl)phenyl)-1-propylxanthine], the Ki (human A2AAR [14]; ref [12]) is given as greater than 10000 nM, the Ki [3] is given as 1.43 ± 0.58 nM and the Kb [16] is given as 0.871 nM. For the same compound, the Kb (human A2BAR [17]) was 0.358 nM, the Ki [5] was 1.43 ± 0.73 nM and the Kb ([9]; versus BAY60-6583, ref Wei Q, read-out: A2B antagonist KB) was 1 nM.
For `Nc1nc2c(cnn2CCc2ccccc2)c2nc(-c3ccco3)nn12` [SCH58261], the “A2A antagonist IC50/KB” value [6, 29] is given as “SCH58261:405 nM” and the “block of NECA-induced increase in coronary flow” value [18] is given as “blocked NECA-induced increase in coronary flow to a higher degree in KO than in WT mice”.
With `CCNC(=O)[C@H]1O[C@@H](n2cnc3c(N)nc(NCCc4ccc(CCC(=O)O)cc4)nc32)[C@H](O)[C@@H]1O` [[³H]CGS-21680] the “KD ± SEM” value [19] was “No binding”.
With `CCCn1c(=O)[nH]c2nc(-c3ccc(S(=O)(=O)N4CCN(c5ccc(Cl)cc5)CC4)cc3)[nH]c2c1=O` [[³H]PSB-603] the “KD ± SEM” value [20] was “High affinity binding”, the Kd ([20]; read-out: KD ± SEM) was 0.68 ± 0.242 nM and the “KD ± SEM” value (human A2AAR [21]) was “no high-affinity binding”. The “KD ± SEM” value [19] was “no high-affinity binding”, the Kd [22] was 0.241 ± 0.108 nM and the Kd (human A2BAR [23]) was 0.403 ± 0.188 nM. For the same compound, the Kd [24] was 2.49 ± 1.39 nM, the “KD ± SEM” value (HA-tagged human A2AAR) was “no high-affinity binding” and the “KD ± SEM” value [25] was “high affinity binding”. It also gave a Kd ([25]; read-out: KD ± SEM) of 2.09 ± 0.72 nM.
In the case of `Nc1ncnc2c1ncn2[C@@H]1O[C@H](CO)[C@@H](O)[C@H]1O` [adenosine], the EC50 (HEK-A2B cells, A2B ≥ A2A; [27]) is listed as 2510 nM and the EC50 [12, 28] is listed as 65000 nM.
